Measurements taken from ChEMBL document CHEMBL4825725, “Synthesis and interaction of terminal unsaturated chemical probes with Mycobacterium tuberculosis CYP124A1” (Bioorg Med Chem, 2021).
Active and inactive are the calls of the source. The calls are words filed in the database; no cut-off is given here.

How the values were obtained:
[1] = system: Mycobacterium tuberculosis; assay: Inhibition of Mycobacterium tuberculosis CYP124A1 at 50 uM incubated for 10 mins in presence of ferridoxin, ferridoxin-NADP+ reductase and NADPH by HPLC analysis
[2] = Binding affinity to Mycobacterium tuberculosis CYP124A1 by UV-visible spectrophotometric analysis; conditions: read-out: Kd(app)
[3] = Drug metabolism assessed as Mycobacterium tuberculosis CYP124A1-mediated drug oxidation at 50 to 250 uM in presence of ferridoxin, ferridoxin-NADP+ reductase and NADPH by GC-MS analysis; type: ADME; conditions: recombinant enzyme, dose 50-250 µM

| SMILES | inhibition [1] | Kd [2] | Drug metabolism [3] |
| --- | --- | --- | --- |
| C=CCOC/C(C)=C/CC/C(C)=C/CO | inactive | 49400 nM | Metabolite_Notdetected |
| C#CCOC/C(C)=C/CC/C(C)=C/CC/C(C)=C/CO | inactive | 1500 nM | Metabolite_Notdetected |
| C#CCOC/C(C)=C/CC/C(C)=C/CO | inactive | 14600 nM | Metabolite_Notdetected |
| CC(C)CCCC(C)CCCC(C)CCCC(C)CC(=O)O (centres undefined) | – | 220 nM | – |
| C=CCOC/C(C)=C/CC/C(C)=C/CC/C(C)=C/CO | inactive | 2900 nM | Metabolite_Notdetected |
| CC(C)=CCC/C(C)=C/CC/C(C)=C/CO [FARNESOL] | – | 1040 nM | – |
